Literature values in paper PMC4323000 (Oncotarget, 2015).

Experiments:
[1] = oral; ref per compound in Table 2; cited from earlier work
[2] = system: ABCG2-overexpressing tumors; conditions: cited from earlier work
[3] = system: ABCG2; conditions: ref per compound in Table 2; cited from earlier work
[4] = human; GF120918 oral; ref [13],[21],[35],[45]–[48] (GF120918), [26],[50],[51] (Telatinib); cited from earlier work

CNC(=O)c1cc(COc2nnc(Nc3ccc(Cl)cc3)c3ccoc23)ccn1 [Telatinib]
In vivo Toxicity, Acute [1]: >15 mg/kg oral | In vivo Impact on Tumor growth ([2]; ref per compound in Table 2): Yes | effect on ABCG2-overexpressing tumors ([2]; telatinib 15 mg/kg in combination with doxorubicin […], xenografted nude mouse model): significantly decrease the growth rate and tumor size | In vitro ABCG2 Specificity [3]: No | In vivo Toxicity, Chronic [4]: >1 500 mg (human)
